# Test results published in ChEMBL document CHEMBL6109057, “Synthesis of harmaline N-9 derivatives and investigation of in vitro anticancer activity” (Bioorg Med Chem Lett, 2025).
# The source made the active and inactive calls. The rule behind the calls is not given here.
# What was measured:
# HeLa = assay: Antiproliferative activity against human HeLa cells assessed as reduction in cell viability measured after 48 hrs by 3-(4,5-dimethylthiazol-2-yl)-2,5-diphenyltetrazolium bromide assay; assay type: functional, cell-based
# HepG2 = assay: Antiproliferative activity against human HepG2 cells assessed as reduction in cell viability measured after 48 hrs by 3-(4,5-dimethylthiazol-2-yl)-2,5-diphenyltetrazolium bromide assay; assay type: functional, cell-based; conditions: HepG2, 48 h
# NCI-H1299 = assay: Antiproliferative activity against human NCI-H1299 cells assessed as reduction in cell viability measured after 48 hrs by MTT assay; assay type: functional, cell-based; conditions: NCI-H1299, 48 h
# A549 = assay: Antiproliferative activity against human A549 cells assessed as reduction in cell viability measured after 48 hrs by MTT assay; assay type: functional, cell-based; conditions: A549, 48 h
# SGC-7901 = assay: Antiproliferative activity against human SGC-7901 cells assessed as reduction in cell viability measured after 48 hrs by MTT assay; assay type: functional, cell-based; conditions: SGC-7901, 48 h
# U-87 MG [1] = assay: Antiproliferative activity against human U87 cells assessed as reduction in cell viability measured after 24 hrs; assay type: functional, cell-based, U-87MG ATCC
# U-87 MG [2] = assay: Antiproliferative activity against human U87 cells assessed as reduction in cell viability measured after 48 hrs; assay type: functional, cell-based, U-87MG ATCC
# 4T1 = assay: Antiproliferative activity against mouse 4T1 cells assessed as reduction in cell viability measured after 24 hrs by MTT assay; assay type: functional, cell-based; conditions: 4T1, 24 h
# HCT-116 [3] = assay: Antiproliferative activity against human HCT-116 cells assessed as cell viability at 50 uM measured after 24 hrs relative to control; assay type: functional; conditions: read-out: Activity
# MGC-803 [4] = assay: Antiproliferative activity against human MGC-803 cells assessed as cell viability at 50 uM measured after 24 hrs relative to control; assay type: functional; conditions: read-out: Activity
# MCF7 [5] = assay: Antiproliferative activity against human MCF7 cells assessed as cell viability at 50 uM measured after 24 hrs relative to control; assay type: functional; conditions: read-out: Activity
# HCT-116 [6] = assay: Antiproliferative activity against human HCT-116 cells assessed as reduction in cell viability at 50 uM measured after 24 hrs; assay type: functional, cell-based
# MGC-803 [7] = assay: Antiproliferative activity against human MGC-803 cells assessed as reduction in cell viability at 50 uM measured after 24 hrs; assay type: functional, cell-based
# MCF7 [8] = assay: Antiproliferative activity against human MCF7 cells assessed as reduction in cell viability at 50 uM measured after 24 hrs; assay type: functional, cell-based
# HCT-116 [9] = assay: Antiproliferative activity against human HCT-116 cells assessed as reduction in cell viability measured after 24 hrs; assay type: functional, cell-based; conditions: HCT-116, 24 h
# MGC-803 [10] = assay: Antiproliferative activity against human MGC-803 cells assessed as reduction in cell viability measured after 24 hrs; assay type: functional, cell-based; conditions: MGC-803, 24 h
# MCF7 [11] = assay: Antiproliferative activity against human MCF7 cells assessed as reduction in cell viability measured after 24 hrs; assay type: functional, cell-based; conditions: MCF7, 24 h
# [12] = Cytotoxicity against HEK293FT cells assessed as reduction in cell viability measured after 24 hrs; assay type: toxicity, cell-based; conditions: human
# MGC-803 [13] = assay: Antimigratory activity against human MGC-803 cells assessed as migration rate at 2.5 uM measured after 24 hrs scratch assay (reference value: 40.72 +/- 0.86%); assay type: functional
# MGC-803 [14] = assay: Antimigratory activity against human MGC-803 cells assessed as migration rate at 5 uM measured after 24 hrs scratch assay (reference value: 40.72 +/- 0.86%); assay type: functional
# MGC-803 [15] = assay: Antimigratory activity against human MGC-803 cells assessed as increase in number of floating cells at 10 uM measured after 24 hrs by scratch assay; assay type: functional, cell-based
# MGC-803 [16] = assay: Antimigratory activity against human MGC-803 cells assessed as increase in aggregated dead cells at 10 uM measured after 24 hrs by scratch assay; assay type: functional, cell-based
# MGC-803 [17] = assay: Antimigratory activity against human MGC-803 cells assessed as migration rate at 2.5 uM measured after 48 hrs scratch assay (reference value: 63 +/- 1.61%); assay type: functional
# MGC-803 [18] = assay: Antimigratory activity against human MGC-803 cells assessed as migration rate at 5 uM measured after 48 hrs scratch assay (reference value: 63 +/- 1.61%); assay type: functional
# MGC-803 [19] = assay: Antimigratory activity against human MGC-803 cells assessed as increase in large number of dead cells at 10 uM measured after 48 hrs by scratch assay; assay type: functional, cell-based
# [20] = Inhibition of cell clone formation in human MGC-803 cells assessed as percentage of area of cell clones at 1 uM (reference value: 1 +/- 0.02%); assay type: functional; set-up: scale not given: the % may be the effect or the level left
# [21] = Inhibition of cell clone formation in human MGC-803 cells assessed as percentage of area of cell clones at 1.5 uM (reference value: 1 +/- 0.02%); assay type: functional; set-up: scale not given: the % may be the effect or the level left
# [22] = Inhibition of cell clone formation in human MGC-803 cells assessed as percentage of area of cell clones at 2.5 uM (reference value: 1 +/- 0.02%); assay type: functional; set-up: scale not given: the % may be the effect or the level left
# MGC-803 [23] = assay: Effect on metabolic changes in human MGC-803 cells assessed as upregulation of leucine level at 4 uM by 1H-NMR analysis; assay type: functional, cell-based
# MGC-803 [24] = assay: Effect on metabolic changes in human MGC-803 cells assessed as upregulation of glycine level at 4 uM by 1H-NMR analysis; assay type: functional, cell-based
# MGC-803 [25] = assay: Effect on metabolic changes in human MGC-803 cells assessed as down regulation of taurine level at 4 uM by 1H-NMR analysis; assay type: functional, cell-based
# MGC-803 [26] = assay: Effect on metabolic changes in human MGC-803 cells assessed as down regulation of NAD+ level at 4 uM by 1H-NMR analysis; assay type: functional, cell-based
# MGC-803 [27] = assay: Effect on metabolic changes in human MGC-803 cells assessed as down regulation of GSH level at 4 uM by 1H-NMR analysis; assay type: functional, cell-based
# MGC-803 [28] = assay: Effect on metabolic changes in human MGC-803 cells assessed as down regulation of creatine level at 4 uM by 1H-NMR analysis; assay type: functional, cell-based
# MGC-803 [29] = assay: Effect on metabolic changes in human MGC-803 cells assessed as down regulation of choline phosphate level at 4 uM by 1H-NMR analysis; assay type: functional, cell-based
# MGC-803 [30] = assay: Effect on metabolic changes in human MGC-803 cells assessed as down regulation of aspartic acid level at 4 uM by 1H-NMR analysis; assay type: functional, cell-based
# MGC-803 [31] = assay: Effect on metabolic changes in human MGC-803 cells assessed as down regulation of AMP level at 4 uM by 1H-NMR analysis; assay type: functional, cell-based
# MGC-803 [32] = assay: Effect on metabolic changes in human MGC-803 cells assessed as down regulation of ADP level at 4 uM by 1H-NMR analysis; assay type: functional, cell-based
smiles,measurement,setting,value
COc1ccc2c3c([nH]c2c1)C(C)=NCC3 [HARMALINE],IC50,HeLa,28 µM
same,IC50,HepG2,11.2 µM
same,IC50,NCI-H1299,48.2 µM
same,IC50,A549,67.9 µM
same,IC50,SGC-7901,4.08 µM
same,IC50,U-87 MG [1],208 µM
same,IC50,U-87 MG [2],127 µM
same,IC50,4T1,30.9 µM
same,viability at 50 µM,HCT-116 [3],~75%
same,viability at 50 µM,MGC-803 [4],~120%
same,viability at 50 µM,MCF7 [5],~71%
COc1ccc2c3c(n(Cc4cccc(C)c4)c2c1)C(C)=NCC3,Activity,HCT-116 [6],Active
same,Activity,MGC-803 [7],Active
same,Activity,MCF7 [8],Active
COc1ccc2c3c(n(CCCCCCn4c5cc(OC)ccc5c5ccnc(C)c54)c2c1)C(C)=NCC3,Activity,HCT-116 [6],Active
same,Activity,MGC-803 [7],Active
same,Activity,MCF7 [8],Active
COc1ccc2c3c(n(CCCCBr)c2c1)C(C)=NCC3,Activity,HCT-116 [6],Active
same,Activity,MGC-803 [7],Active
same,Activity,MCF7 [8],Active
COC(=O)Cn1c2c(c3ccc(OC)cc31)CCN=C2C,Activity,HCT-116 [6],Active
same,Activity,MGC-803 [7],Active
same,Activity,MCF7 [8],Active
COC(=O)CCCCn1c2c(c3ccc(OC)cc31)CCN=C2C,Activity,HCT-116 [6],Active
same,Activity,MGC-803 [7],Active
same,Activity,MCF7 [8],Active
COc1ccc2c3c(n(Cc4ccccc4C)c2c1)C(C)=NCC3,Activity,HCT-116 [6],Active
same,Activity,MGC-803 [7],Active
same,Activity,MCF7 [8],Active
COc1ccc2c3c(n(Cc4cccc(F)c4)c2c1)C(C)=NCC3,Activity,HCT-116 [6],Active
same,Activity,MGC-803 [7],Active
same,Activity,MCF7 [8],Active
COc1ccc2c3c(n(Cc4ccccc4)c2c1)C(C)=NCC3,Activity,HCT-116 [6],Active
same,Activity,MGC-803 [7],Active
same,Activity,MCF7 [8],Active
COc1ccc2c3c(n(C/C=C/c4ccccc4)c2c1)C(C)=NCC3,Activity,HCT-116 [6],Active
same,Activity,MGC-803 [7],Active
same,Activity,MCF7 [8],Active
C#CCn1c2c(c3ccc(OC)cc31)CCN=C2C,Activity,HCT-116 [6],Active
same,Activity,MGC-803 [7],Active
same,Activity,MCF7 [8],Active
COc1ccc2c3c(n(Cc4ccc5ccccc5c4)c2c1)C(C)=NCC3,viability at 50 µM,HCT-116 [3],< 10%
same,viability at 50 µM,MGC-803 [4],< 10%
same,viability at 50 µM,MCF7 [5],< 10%
same,IC50,HCT-116 [9],6.32 µM
same,IC50,MGC-803 [10],21.4 µM
same,IC50,MCF7 [11],11.9 µM
COC(=O)CCCn1c2c(c3ccc(OC)cc31)CCN=C2C,Activity,HCT-116 [6],Active
same,Activity,MGC-803 [7],Active
same,Activity,MCF7 [8],Active
COc1ccc2c3c(n(CCCCCn4c5cc(OC)ccc5c5ccnc(C)c54)c2c1)C(C)=NCC3,viability at 50 µM,HCT-116 [3],< 10%
same,viability at 50 µM,MGC-803 [4],< 10%
same,viability at 50 µM,MCF7 [5],< 10%
same,IC50,HCT-116 [9],3.84 µM
same,IC50,MGC-803 [10],5.26 µM
same,IC50,MCF7 [11],8.67 µM
same,IC50 at 24 h,[12],47.6 µM
same,Activity,MGC-803 [13],25.5%
same,Activity,MGC-803 [14],20.76%
same,Activity,MGC-803 [15],Active
same,Activity,MGC-803 [16],Active
same,Activity,MGC-803 [17],44.14%
same,Activity,MGC-803 [18],33.65%
same,Activity,MGC-803 [19],Active
same,Activity,[20],0.56%
same,Activity,[21],0.33%
same,Activity,[22],0.02%
same,Activity,MGC-803 [23],Active
same,Activity,MGC-803 [24],Active
same,Activity,MGC-803 [25],Active
same,Activity,MGC-803 [26],Active
same,Activity,MGC-803 [27],Active
same,Activity,MGC-803 [28],Active
same,Activity,MGC-803 [29],Active
same,Activity,MGC-803 [30],Active
same,Activity,MGC-803 [31],Active
same,Activity,MGC-803 [32],Active
COc1ccc2c3c(n(Cc4ccc(C)cc4)c2c1)C(C)=NCC3,Activity,HCT-116 [6],Active
same,Activity,MGC-803 [7],Active
same,Activity,MCF7 [8],Active
COc1ccc2c3ccnc(C)c3n(CCCCCn3c4cc(OC)ccc4c4ccnc(C)c43)c2c1,viability at 50 µM,HCT-116 [3],~31%
same,viability at 50 µM,MGC-803 [4],~59%
same,viability at 50 µM,MCF7 [5],~35%
COc1ccc2c3c(n(Cc4ccc(F)cc4)c2c1)C(C)=NCC3,Activity,HCT-116 [6],Active
same,Activity,MGC-803 [7],Active
same,Activity,MCF7 [8],Active
COc1ccc2c3c(n(CCc4ccc(F)cc4)c2c1)C(C)=NCC3,Activity,HCT-116 [6],Active
same,Activity,MGC-803 [7],Active
same,Activity,MCF7 [8],Active
COc1ccc2c3c(n(Cc4ccccc4F)c2c1)C(C)=NCC3,Activity,HCT-116 [6],Active
same,Activity,MGC-803 [7],Active
same,Activity,MCF7 [8],Active
COc1ccc2c3c(n(CCCCCCBr)c2c1)C(C)=NCC3,viability at 50 µM,HCT-116 [3],< 10%
same,viability at 50 µM,MGC-803 [4],< 10%
same,viability at 50 µM,MCF7 [5],< 10%
same,IC50,HCT-116 [9],8.95 µM
same,IC50,MGC-803 [10],15.4 µM
same,IC50,MCF7 [11],18.5 µM
COc1ccc2c3c(n(CCCCCBr)c2c1)C(C)=NCC3,Activity,HCT-116 [6],Active
same,Activity,MGC-803 [7],Active
same,Activity,MCF7 [8],Active
COc1ccc2c3c(n(CCCCn4c5cc(OC)ccc5c5ccnc(C)c54)c2c1)C(C)=NCC3,viability at 50 µM,HCT-116 [3],< 10%
same,viability at 50 µM,MGC-803 [4],< 10%
same,viability at 50 µM,MCF7 [5],< 10%
same,IC50,HCT-116 [9],4.5 µM
same,IC50,MGC-803 [10],10.2 µM
same,IC50,MCF7 [11],18.7 µM
COC(=O)CCn1c2c(c3ccc(OC)cc31)CCN=C2C,Activity,HCT-116 [6],Active
same,Activity,MGC-803 [7],Active
same,Activity,MCF7 [8],Active
C=CCn1c2c(c3ccc(OC)cc31)CCN=C2C,Activity,HCT-116 [6],Active
same,Activity,MGC-803 [7],Active
same,Activity,MCF7 [8],Active
